The values that follow come from patent publication US10905671B2, “Method of using omega 3 fatty acids to treat diseases which involve damage to the nervous system” (priority 2013, dated 2021).

Data set [1] relates to moderate thyroid eye disease. Nature of the data set: Patients with moderate thyroid eye disease (Example 5). The settings on record: 3 patients; 10 mg. Type of data set: in vivo, human. The method, then: The invention was used in 3 patients with moderate thyroid eye disease. The patients were controlled with 10 mg of prednisolone or with 7.5 g to 10 g of EPA and DHA and having a AA/EPA ratio between 1 to 1.5.

Data set [2] deals with scleritis. Nature of the data set: Patients with scleritis (Example 3). The settings on record: two patients; 10 mg. Type of data set: in vivo, human.

Consider `C[C@]12C=CC(=O)C=C1CC[C@@H]1[C@@H]2[C@@H](O)C[C@@]2(C)[C@H]1CC[C@]2(O)C(=O)CO` [prednisolone], for which the “control of thyroid eye disease” value in data set [1] is given as “controlled”. In data set [2], the control of scleritis entry is reported as “controlled” and the side effects entry is “had to stop due to the side effects”.
